We go through two compounds from US12017976B1, “1-(4-carbonoimidoylphenoxy)-3-{4-[(e)-(phenylimino)methyl]phenoxy }propan-2-ol as an eco-friendly insecticidal agent against Spodoptera littoralis (boisd.)” (KING FAISAL UNIVERSITY, priority 2024, dated 2024).

In brackets after ≈: the same amount, converted by molar mass.

The term LC50 denotes the concentration lethal to half of the exposed cells or organisms.

Series [1] deals with Spodoptera littoralis larvae (2nd and 4th instar). Nature of the series: Insecticidal leaf dip bioassay on larvae of the laboratory strain of cotton leafworm.
Procedure: Five concentrations (200, 100, 50, 25, 12.5 ppm) were designed for this synthetic compound and the reference fenoxycarb's compound as the dynamic ingredients based on ppm via diluting the commercial formulation.
In this experiment, the synthetic compound was tested for its insecticidal bioactivity using the industry-standard leaf dip bioassay techniques. […] Until usage, the stocks were kept in a refrigerator. The target substance test results were noted & the concentrations needed to destroy 50% (LC50) of S. littoralis larvae were calculated. The target compound was employed in five different concentrations, & 0.1% Tween 80 was employed as a surfactant. Castor bean leaf discs (nine centimeters in diameter) were dipped in the concentration under test for ten seconds, then fed to 2th & 4th larvae, which were roughly the same size and housed in glass jars (five pound). Each action carried out 3 times with ten larvae each. The mortality equalized via Abbott's formula. […] The mortality results of larval insect were estimated through employing probit analysis through a statistics (LDP-line) equation which estimate the LC50 values with 95% fiducially limits of lower, upper confidence limit and slope.
The test system of a further series is aquatic insects. The conditions noted are these: highly toxic / very highly toxic classification; cited from earlier work.

On to `CCOC(=O)NCCOc1ccc(Oc2ccccc2)cc1` [fenoxycarb], for which the “Toxicity index %, 2nd instar larvae” value in series [1] (2nd instar larvae, 72 hours, fenoxycarb's LC50 / compound's LC50) was determined as 100%. Moreover, in series [1] (4th instar larvae, 72 hours, fenoxycarb's LC50 / compound's LC50), the “Toxicity index %, 4th instar larvae” value was determined as 100%. Moreover, the median lethal concentration (LC50) in series [1] (Spodoptera littoralis, in Gossypium hirsutum, foliar, read-out: LC50 against Spodoptera littoralis) was found to be 5.94 µg/mL (≈ 19.7 µM).

`CCc1ccc(C(=O)NN(C(=O)c2cc(C)cc(C)c2)C(C)(C)C)cc1` [tebufenozide]: in the series with aquatic insects, the “LC50 for aquatic insects” value was 100 to 1000 µg/mL.
